# Measured values from patent US8952024B2, “Herbicidal pyrimidone derivatives” (E I du Pont de Nemours and Company, priority 2009, dated 2015).
# Assays:
# Test in all cases: Test B pre-/postemergence plant response
# Format in all cases: in vivo
# [1] = system: johnsongrass (Sorghum halepense)
# Summary of the method: (§1)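 Visually scored on a 0 to 100 scale after 13 to 15 days in greenhouse versus controls. Treatments were preemergence on seeded loam/sand soil and postemergence on 1- to 4-leaf plants.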
# [2] = system: large crabgrass (Digitaria sanguinalis)
# Summary of the method: as §1
# [3] = system: downy bromegrass (Bromus tectorum)
# Summary of the method: as §1
# [4] = system: yellow nutsedge (Cyperus esculentus)
# Summary of the method: as §1
# [5] = system: ragweed (common ragweed, Ambrosia elatior)
# Summary of the method: as §1
# [6] = system: Italian ryegrass (Lolium multiflorum)
# Summary of the method: as §1
# [7] = system: blackgrass (Alopecurus myosuroides)
# Summary of the method: as §1
# [8] = system: wheat (Triticum aestivum)
# Summary of the method: as §1
# [9] = system: velvetleaf (Abutilon theophrasti)
# Summary of the method: as §1
# soybean (Glycine max) = system: soybean (Glycine max)
# Summary of the method: as §1
# [10] = system: lambsquarters (Chenopodium album)
# Summary of the method: as §1
# corn (Zea mays) = system: corn (Zea mays)
# Summary of the method: as §1
# kochia (Kochia scoparia) = system: kochia (Kochia scoparia)
# Summary of the method: as §1
# wild oat (Avena fatua) = system: wild oat (Avena fatua)
# Summary of the method: as §1
# [11] = system: woolly cupgrass (Eriochloa villosa)
# Summary of the method: as §1
# [12] = system: Surinam grass (Brachiaria decumbens)
# Summary of the method: as §1
# [13] = system: goosegrass (Eleusine indica)
# Summary of the method: as §1
# [14] = system: pigweed (Amaranthus retroflexus)
# Summary of the method: as §1
# [15] = 31 g ai/ha, postemergence, scale 0 to 100, 0 is no effect, 100 is complete control
# [16] = Postemergence, 62 g ai/ha, scale 0 (no effect) to 100 (complete control), 13 to 15 days
# [17] = Postemergence, 125 g ai/ha, visual rating after 13 to 15 days, scale 0 (no effect) to 100 (complete control)
# [18] = Postemergence, 250 g ai/ha, scale 0 to 100 (0 no effect, 100 complete control)
# [19] = Preemergence, 31 g ai/ha, scale 0 to 100 (0 no effect, 100 complete control)
# [20] = Preemergence, 62 g ai/ha, scale 0 to 100, 0 no effect, 100 complete control
# [21] = Preemergence, 125 g ai/ha, scale 0 to 100, 0 no effect, 100 complete control
# [22] = 250 g ai/ha, Preemergence, 0 to 100 scale
smiles,measurement,setting,value
CCCCc1ncc(C(=O)C2=C(O)CCCC2=O)c(=O)n1-c1ccccc1C [Compound 62],"Plant response rating, Johnsongrass",[1]; [15],0
same,"Plant response rating, Johnsongrass",[1]; [16],0
same,"Plant response rating, Johnsongrass",[1]; [17],0
same,"Plant response rating, Johnsongrass",[1]; [18],10
same,"Plant response rating, Johnsongrass",[1]; [19],0
same,"Plant response rating, Johnsongrass",[1]; [20],0
same,"Plant response rating, Johnsongrass",[1]; [21],0
same,"Plant response rating, Crabgrass, Large",[2]; [15],55
same,"Plant response rating, Crabgrass, Large",[2]; [22],98
same,"Plant response rating, Crabgrass, Large",[2]; [16],75
same,"Plant response rating, Crabgrass, Large",[2]; [17],80
same,"Plant response rating, Crabgrass, Large",[2]; [18],85
same,"Plant response rating, Crabgrass, Large",[2]; [19],0
same,"Plant response rating, Crabgrass, Large",[2]; [20],50
same,"Plant response rating, Crabgrass, Large",[2]; [21],80
same,"Plant response rating, Bromegrass, Downy",[3]; [15],30
same,"Plant response rating, Bromegrass, Downy",[3]; [22],0
same,"Plant response rating, Bromegrass, Downy",[3]; [16],45
same,"Plant response rating, Bromegrass, Downy",[3]; [17],50
same,"Plant response rating, Bromegrass, Downy",[3]; [18],50
same,"Plant response rating, Bromegrass, Downy",[3]; [19],0
same,"Plant response rating, Bromegrass, Downy",[3]; [20],0
same,"Plant response rating, Bromegrass, Downy",[3]; [21],0
same,"Plant response rating, Nutsedge, Yellow",[4]; [15],15
same,"Plant response rating, Nutsedge, Yellow",[4]; [16],25
same,"Plant response rating, Nutsedge, Yellow",[4]; [17],35
same,"Plant response rating, Nutsedge, Yellow",[4]; [18],55
same,"Plant response rating, Nutsedge, Yellow",[4]; [19],15
same,"Plant response rating, Nutsedge, Yellow",[4]; [20],25
same,"Plant response rating, Nutsedge, Yellow",[4]; [21],45
same,"Plant response rating, Ragweed",[5]; [15],70
same,"Plant response rating, Ragweed",[5]; [16],75
same,"Plant response rating, Ragweed",[5]; [17],75
same,"Plant response rating, Ragweed",[5]; [18],80
same,"Plant response rating, Ragweed",[5]; [19],0
same,"Plant response rating, Ragweed",[5]; [20],20
same,"Plant response rating, Ragweed",[5]; [21],45
same,"Plant response rating, Ryegrass, Italian",[6]; [15],0
same,"Plant response rating, Ryegrass, Italian",[6]; [16],5
same,"Plant response rating, Ryegrass, Italian",[6]; [17],50
same,"Plant response rating, Ryegrass, Italian",[6]; [18],50
same,"Plant response rating, Ryegrass, Italian",[6]; [19],0
same,"Plant response rating, Ryegrass, Italian",[6]; [20],0
same,"Plant response rating, Ryegrass, Italian",[6]; [21],0
same,"Plant response rating, Blackgrass",[7]; [15],15
same,"Plant response rating, Blackgrass",[7]; [22],0
same,"Plant response rating, Blackgrass",[7]; [16],30
same,"Plant response rating, Blackgrass",[7]; [17],30
same,"Plant response rating, Blackgrass",[7]; [18],50
same,"Plant response rating, Blackgrass",[7]; [19],0
same,"Plant response rating, Blackgrass",[7]; [20],0
same,"Plant response rating, Blackgrass",[7]; [21],0
same,"Plant response rating, Wheat",[8]; [15],0
same,"Plant response rating, Wheat",[8]; [16],0
same,"Plant response rating, Wheat",[8]; [17],5
same,"Plant response rating, Wheat",[8]; [18],30
same,"Plant response rating, Wheat",[8]; [19],0
same,"Plant response rating, Wheat",[8]; [20],0
same,"Plant response rating, Wheat",[8]; [21],0
same,"Plant response rating, Velvetleaf",[9]; [15],85
same,"Plant response rating, Velvetleaf",[9]; [16],95
same,"Plant response rating, Velvetleaf",[9]; [17],95
same,"Plant response rating, Velvetleaf",[9]; [18],100
same,"Plant response rating, Velvetleaf",[9]; [19],75
same,"Plant response rating, Velvetleaf",[9]; [20],75
same,"Plant response rating, Velvetleaf",[9]; [21],95
same,"Plant response rating, Soybean",soybean (Glycine max); [15],75
same,"Plant response rating, Soybean",soybean (Glycine max); [16],80
same,"Plant response rating, Soybean",soybean (Glycine max); [17],90
same,"Plant response rating, Soybean",soybean (Glycine max); [18],95
same,"Plant response rating, Soybean",soybean (Glycine max); [19],0
same,"Plant response rating, Soybean",soybean (Glycine max); [20],80
same,"Plant response rating, Soybean",soybean (Glycine max); [21],80
same,"Plant response rating, Lambsquarters",[10]; [15],85
same,"Plant response rating, Lambsquarters",[10]; [22],100
same,"Plant response rating, Lambsquarters",[10]; [16],95
same,"Plant response rating, Lambsquarters",[10]; [17],98
same,"Plant response rating, Lambsquarters",[10]; [18],100
same,"Plant response rating, Lambsquarters",[10]; [19],98
same,"Plant response rating, Lambsquarters",[10]; [20],98
same,"Plant response rating, Lambsquarters",[10]; [21],100
same,"Plant response rating, Corn",corn (Zea mays); [15],70
same,"Plant response rating, Corn",corn (Zea mays); [16],70
same,"Plant response rating, Corn",corn (Zea mays); [17],75
same,"Plant response rating, Corn",corn (Zea mays); [18],80
same,"Plant response rating, Corn",corn (Zea mays); [19],0
same,"Plant response rating, Corn",corn (Zea mays); [21],0
same,"Plant response rating, Kochia",kochia (Kochia scoparia); [15],10
same,"Plant response rating, Kochia",kochia (Kochia scoparia); [22],100
same,"Plant response rating, Kochia",kochia (Kochia scoparia); [16],25
same,"Plant response rating, Kochia",kochia (Kochia scoparia); [17],60
same,"Plant response rating, Kochia",kochia (Kochia scoparia); [18],80
same,"Plant response rating, Kochia",kochia (Kochia scoparia); [19],98
same,"Plant response rating, Kochia",kochia (Kochia scoparia); [20],100
same,"Plant response rating, Kochia",kochia (Kochia scoparia); [21],100
same,"Plant response rating, Oat, Wild",wild oat (Avena fatua); [15],5
same,"Plant response rating, Oat, Wild",wild oat (Avena fatua); [16],10
same,"Plant response rating, Oat, Wild",wild oat (Avena fatua); [17],25
same,"Plant response rating, Oat, Wild",wild oat (Avena fatua); [18],40
same,"Plant response rating, Oat, Wild",wild oat (Avena fatua); [19],0
same,"Plant response rating, Oat, Wild",wild oat (Avena fatua); [20],0
same,"Plant response rating, Oat, Wild",wild oat (Avena fatua); [21],0
same,"Plant response rating, Cupgrass, Woolly",[11]; [15],55
same,"Plant response rating, Cupgrass, Woolly",[11]; [22],10
same,"Plant response rating, Cupgrass, Woolly",[11]; [16],55
same,"Plant response rating, Cupgrass, Woolly",[11]; [17],60
same,"Plant response rating, Cupgrass, Woolly",[11]; [18],65
same,"Plant response rating, Cupgrass, Woolly",[11]; [19],0
same,"Plant response rating, Cupgrass, Woolly",[11]; [20],0
same,"Plant response rating, Cupgrass, Woolly",[11]; [21],5
same,"Plant response rating, Surinam Grass",[12]; [15],20
same,"Plant response rating, Surinam Grass",[12]; [16],45
same,"Plant response rating, Surinam Grass",[12]; [17],65
same,"Plant response rating, Surinam Grass",[12]; [18],70
same,"Plant response rating, Surinam Grass",[12]; [19],5
same,"Plant response rating, Surinam Grass",[12]; [20],20
same,"Plant response rating, Surinam Grass",[12]; [21],25
same,"Plant response rating, Goosegrass",[13]; [15],65
same,"Plant response rating, Goosegrass",[13]; [22],98
same,"Plant response rating, Goosegrass",[13]; [16],65
same,"Plant response rating, Goosegrass",[13]; [17],65
same,"Plant response rating, Goosegrass",[13]; [18],75
same,"Plant response rating, Goosegrass",[13]; [19],15
same,"Plant response rating, Goosegrass",[13]; [20],95
same,"Plant response rating, Goosegrass",[13]; [21],98
same,"Plant response rating, Pigweed",[14]; [15],98
same,"Plant response rating, Pigweed",[14]; [16],98
same,"Plant response rating, Pigweed",[14]; [17],100
same,"Plant response rating, Pigweed",[14]; [18],100
same,"Plant response rating, Pigweed",[14]; [19],45
same,"Plant response rating, Pigweed",[14]; [20],98
same,"Plant response rating, Pigweed",[14]; [21],100
